Data taken from the NIST ThermoML archive (doi:10.1016/j.fluid.2008.07.018).
± gives the expanded uncertainty stated by the source.

Legend:
[1] = Liquid; for mass density: 298.15 K, 101.33 kPa
[2] = refractive index (Na D-line) (dimensionless); settings: 298.15 K; 101.33 kPa; Liquid; Standard Abbe refractometry

Row | vapor or sublimation pressure ([1]; 472.55 K) | vapor or sublimation pressure ([1]; 424.35 K) | Structure (SMILES) | mass density [1] | refractive index [2] | vapor or sublimation pressure ([1]; 402.85 K) | vapor or sublimation pressure ([1]; 427.05 K) | vapor or sublimation pressure ([1]; 455.25 K)
1 | – | – | CC(=O)N(C)C [N,N-dimethylethanamide] | 936.3 ± 2.7 kg/m3 | 1.4357 ± 0.0007 | – | – | –
2 | – | – | Clc1ccccc1 [chlorobenzene] | 1106.3 ± 3.3 kg/m3 | 1.5218 ± 0.0007 | 95.5 ± 4 kPa | – | –
3 | 95.5 ± 4 kPa | – | CC(=O)c1ccccc1 [acetophenone] | 1023.8 ± 3 kg/m3 | 1.5342 ± 0.0007 | – | – | –
4 | – | 95.5 ± 3.3 kPa | CN(C)C=O [dimethylformamide] | 943.9 ± 1.6 kg/m3 | 1.4219 ± 0.0007 | – | – | –
5 | – | – | Brc1ccccc1 [bromobenzene] | 1488.1 ± 4.8 kg/m3 | 1.5571 ± 0.0007 | – | 95.5 ± 4 kPa | –
6 | – | – | Nc1ccccc1 [aniline] | 1017.6 ± 3 kg/m3 | 1.5836 ± 0.0007 | – | – | 95.5 ± 4 kPa
